In patent EP3708565A1, “PYRIMIDINYLOXYPHENYLAMIDINES AND THE USE THEREOF AS FUNGICIDES” (Bayer AG, priority 2020, dated 2020):

What was measured:
[1] = LogP measurement by HPLC on reversed phase columns (EEC directive 79/831 Annex V.A8); assay type: physicochemical
Description: If more than one LogP value is available within the same method, all the values are given and separated by "+".
Lambda-max-values were determined using UV-spectra from 200 nm to 400 nm and the peak values of the chromatographic signals.

Puccinia recondita = assay: in vivo preventive test on Puccinia recondita (brown rust on wheat); details: for pest or weed control at 500 ppm: Puccinia recondita, 264 h, 500 ppm of active ingredient, young wheat plants sprayed, inoculated after 24 hours, evaluated 11 days after the inoculation, read-out: efficacy; for efficacy: 500 ppm
Description: Example: in vivo preventive test on Puccinia recondita (brown rust on wheat)
(§1) The active ingredients were made soluble and homogenized in a mixture of Dimethyl sulfoxide/Acetone/ /Tween® 80 and then diluted in water to the desired concentration.
The young plants of wheat were treated by spraying the active ingredient prepared as described above. Control plants were treated only with an aqueous solution of Acetone/Dimethyl sulfoxide/ Tween® 80.
After 24 hours, the plants were contaminated by spraying the leaves with an aqueous suspension of Puccinia recondita spores. The contaminated wheat plants were incubated for 24 hours at 20°C and at 100% relative humidity and then for 10 days at 20°C and at 70-80% relative humidity.
The test was evaluated 11 days after the inoculation. 0% means an efficacy which corresponds to that of the control plants while an efficacy of 100% means that no disease was observed.

Sphaerotheca fuliginea = assay: in vivo preventive test on Sphaerotheca fuliginea (powdery mildew on cucurbits); details: 500 ppm of active ingredient, young gherkin plants sprayed, inoculated after 24 hours, evaluated 8 days after the inoculation; for pest or weed control at 500 ppm: Podosphaera fuliginea, 192 h, read-out: efficacy
Description: Example: in vivo preventive test on Sphaerotheca fuliginea (powdery mildew on cucurbits)
as §1
The young plants of gherkin were treated by spraying the active ingredient prepared as described above. Control plants were treated only with an aqueous solution of Acetone/Dimethyl sulfoxide/ […].
After 24 hours, the plants were contaminated by spraying the leaves with an aqueous suspension of Sphaerotheca fuliginea spores. The contaminated gherkin plants were incubated for 8 days at 20°C and at 70-80% relative humidity.
The test was evaluated 8 days after the inoculation. 0% means an efficacy which corresponds to that of the control plants while an efficacy of 100% means that no disease was observed.

Phakospora pachyrhizi = assay: in vivo preventive test on Phakospora pachyrhizi (soybean rust); details: for pest or weed control at 500 ppm: Glycine max, 288 h, 500 ppm of active ingredient, young soybean plants sprayed, inoculated after 24 hours, evaluated 12 days after the inoculation, read-out: efficacy; for efficacy: 500 ppm
Description: Example: in vivo preventive test on Phakospora pachyrhizi (soybean rust)
as §1
The young plants of soybean were treated by spraying the active ingredient prepared as described above. Control plants were treated only with an aqueous solution of Acetone/Dimethyl sulfoxide/ […].
After 24 hours, the plants were contaminated by spraying the leaves with an aqueous suspension of Phakosporapachyrhizi spores. The contaminated soybean plants were incubated for 24 hours at 24°C and at 100% relative humidity and then for 11 days at 24°C and at 70-80% relative humidity.
The test was evaluated 12 days after the inoculation. 0% means an efficacy which corresponds to that of the control plants while an efficacy of 100% means that no disease was observed.

[2] = reversed phase HPLC column, method [a]: LC-UV, acidic range, 0.1% formic acid in water and acetonitrile as eluent
[3] = reversed phase HPLC column, method [b]: LC-UV, neutral range, 0.001 molar ammonium acetate solution in water and acetonitrile as eluent
[4] = method [a]: LC-UV, acidic range, 0.1% formic acid in water and acetonitrile as eluent
[5] = method [b]: LC-UV, neutral range, 0.001 molar ammonium acetate solution in water and acetonitrile as eluent

| SMILES | chromatographic logP [1, 2] | pest or weed control at 500 ppm (Puccinia recondita) | pest or weed control at 500 ppm (Sphaerotheca fuliginea) | pest or weed control at 500 ppm (Phakospora pachyrhizi) | chromatographic logP [1, 3] | chromatographic logP [1, 4] | chromatographic logP [1, 5] | efficacy (Puccinia recondita) | efficacy (Sphaerotheca fuliginea) | efficacy (Phakospora pachyrhizi) |
| --- | --- | --- | --- | --- | --- | --- | --- | --- | --- | --- |
| CCCSc1nc(C)cc(Oc2cc(C)c(N=CN(C)CC)cc2C)n1 [I.020, N'-[2,5-dimethyl-4-(6-methyl-2-propylsulfanylpyrimidin-4-yl)oxyphenyl]-N-ethyl-N-methyl-methanimidamide] | 1.69 | ≥ 70% | ≥ 70% | ≥ 70% |  |  |  |  |  |  |
| CCN(C)C=Nc1cc(C)c(Oc2ccnc(C(F)(F)F)n2)cc1C [I.030, N'-[2,5-dimethyl-4-[2-(trifluoromethyl)pyrimidin-4-yl]oxyphenyl]-N-ethyl-N-methylmethan-imidamide] | 1.24 | ≥ 70% | ≥ 70% | ≥ 70% | 3.82 |  |  |  |  |  |
| CCN(C)C=Nc1cc(Br)c(Oc2ccnc(SCC(F)(F)F)n2)cc1C [I.005, N'-[5-bromo-2-methyl-4-[2-(2,2,2-trifluoroethylsulfanyl)pyrimidin-4-yl]oxyphenyl]-N-ethyl-N-methylmethanimidamide] | 1.58 | ≥ 70% | ≥ 70% | ≥ 70% | 4.66 |  |  |  |  |  |
| CCN(C)C=Nc1cc(C)c(Oc2ccnc(Sc3cccc(F)c3)n2)cc1C [I.009, N-ethyl-N'-[4-[2-(3-fluorophenyl)sulfanylpyrimidin-4-yl]oxy-2,5-dimethylphenyl]-N-methyl-methanimidamide] | 1.66 | ≥ 70% | ≥ 70% | ≥ 70% |  |  |  |  |  |  |
| CCN(C)C=Nc1cc(Br)c(Oc2ccnc(C(F)(F)F)n2)cc1C [I.017, N'-[5-bromo-2-methyl-4-[2-(trifluoromethyl)pyrimidin-4-yl]oxyphenyl]-N-ethyl-N-methyl-methanimidamide] | 1.32 | ≥ 70% | ≥ 70% | ≥ 70% | 4.08 |  |  |  |  |  |
| CCN(C)C=Nc1cc(C)c(Oc2ccnc(Sc3ccccc3)n2)cc1C [I.039, N'-[2,5-dimethyl-4-(2-phenylsulfanylpyrimidin-4-yl)oxyphenyl]-N-ethyl-N-methylmethanimid-amide] |  |  |  |  |  | 1.52 | 4.55 | at least 70% | at least 70% | at least 70% |
| CCN(C)C=Nc1cc(C)c(Oc2ccnc(SCC3CC3)n2)cc1C [I.040, N'-[4-[2-(cyclopropylmethylsulfanyl)pyrimidin-4-yl]oxy-2,5-dimethylphenyl]-N-ethyl-N-methylmethanimidamide] | 1.55 | ≥ 70% | ≥ 70% | ≥ 70% |  |  |  |  |  |  |
| CCSc1nc(C)cc(Oc2cc(C)c(N=CN(C)CC)cc2C)n1 [I.019, N-ethyl-N'-[4-(2-ethylsulfanyl-6-methylpyrimidin-4-yl)oxy-2,5-dimethylphenyl]-N-methyl-methanimidamide] | 1.52 | ≥ 70% | ≥ 70% | ≥ 70% |  |  |  |  |  |  |
| CCN(C)C=Nc1cc(C)c(Oc2ccnc(SCCC(F)(F)F)n2)cc1C [I.013, N'-[2,5-dimethyl-4-[2-(3,3,3-trifluoropropylsulfanyl)pyrimidin-4-yl]oxyphenyl]-N-ethyl-N-methylmethanimidamide] | 1.58 | ≥ 70% | ≥ 70% | ≥ 70% |  |  |  |  |  |  |
| CCN(C)C=Nc1cc(C)c(Oc2ccnc(OC3CCCC3)n2)cc1C [I.041, N'-[4-(2-cyclopentyloxypyrimidin-4-yl)oxy-2,5-dimethylphenyl]-N-ethyl-N-methylmethanimid-amide] |  |  |  |  |  | 1.6 | 4.67 | at least 70% | at least 70% | at least 70% |
